Measurements from patent US12485119B2, “Methods of treating pulmonary arterial hypertension” (ACTELION PHARMACEUTICALS LTD, priority 2019, dated 2025).

Tests used:
[1] = system: newly diagnosed, treatment-naïve subjects with PAH
From the text: The following safety endpoints will be used: • Treatment-emergent AEs. • AEs leading to premature discontinuation of any of the 3 study treatments. • Treatment-emergent SAEs. • Treatment-emergent deaths. • Treatment-emergent marked laboratory abnormalities. • Change from baseline in laboratory variables. • Change from baseline in vital signs.
The safety endpoints will be analyzed for the following time periods: • From Day 1 until EOMOP. • From Day 1 until start of double-blind treatment (selexipag/placebo). • From start until discontinuation of macitentan study treatment (or until EOMOP, whichever is first)+30 days safety follow up. • From start until discontinuation of tadalafil study treatment (or until EOMOP, whichever is first)+30 days safety follow up. • From start until discontinuation of double-blind treatment (or until EOMOP, whichever is first)+30 days safety follow up. • From EOMOP until EOT plus 30 days safety follow-up. • The 30 days safety follow-up.

[2] = system: newly diagnosed, treatment-naïve subjects with PAH; test: Exposure to study treatments, individual maintenance dose and maximum tolerated dose; type: in vivo, human; details: up to EOMOP; Safety Set
Description: The starting dose of double-blind selexipag or placebo on Day 15±3 is 200 μg twice daily (in the morning and in the evening). The dose is up-titrated in increments of 200 μg twice daily, usually at weekly intervals (see Table 1), until either a maximum dose of 1600 μg twice daily is reached or adverse pharmacological effects that cannot be tolerated or medically managed are experienced, whichever is first. In the event of adverse effects typical of prostanoid therapy, it is recommended not to discontinue double-blind treatment because these effects are usually transient or manageable with symptomatic treatment. If a dose that cannot be tolerated is reached, the dose should be reduced to the previous dose level.

[3] = risk TEAEs (EU Uptravi RMP) up to EOMOP

Which “Tolerability as part of the initial triple therapy regimen” value ([1]; in vivo) does the source give for `CC(C)N(CCCCOCC(=O)NS(C)(=O)=O)c1cnc(-c2ccccc2)c(-c2ccccc2)n1` [Selexipag, 2-{4-[(5,6-diphenylpyrazin-2-yl)(propan-2-yl)amino]butoxy}-N-(methanesulfonyl)acetamide] here?
Its value is “well-tolerated”.

And the “Bleeding events: PT Blood loss anaemia, %” value [1, 3]?
The value was “(0.8) %”.

What about the “Bleeding events: PT Conjunctival haemorrhage, %” value [1, 3] of the same compound?
Its value is “(0.8) %”.

And the “Bleeding events: PT Contusion, %” value [1, 3]?
Its value is “(0.8) %”.

And the “Bleeding events: PT Epistaxis, %” value [1, 3]?
Its value is “(9.2) %”.

What about the “Bleeding events: PT Gastrointestinal haemorrhage, %” value [1, 3] of the same compound?
Its value is “(3.4) %”.

And the “Bleeding events: PT Gastrointestinal polyp haemorrhage, %” value [1, 3]?
The value was “(0.8) %”.

And the “Bleeding events: PT Gingival bleeding, %” value [1, 3]?
Its value is “(0.8) %”.

What about the “Bleeding events: PT Haematochezia, %” value [1, 3] of the same compound?
Its value is “(0.8) %”.

And the “Bleeding events: PT Haematoma, %” value [1, 3]?
Its value is “(1.7) %”.

What about the “Bleeding events: PT Haemoptysis, %” value [1, 3] of the same compound?
The value was “(0.8) %”.

What about the “Bleeding events: PT Haemorrhoidal haemorrhage, %” value [1, 3] of the same compound?
Its value is “(0.8) %”.

What about the “Bleeding events: PT Hereditary haemorrhagic telangiectasia, %” value [1, 3] of the same compound?
Its value is “(0.8) %”.

What about the “Bleeding events: PT Melaena, %” value [1, 3] of the same compound?
The value was “(0.8) %”.

What about the “Bleeding events: PT Menorrhagia, %” value [1, 3] of the same compound?
Its value is “(0.8) %”.

And the “Bleeding events: PT Metrorrhagia, %” value [1, 3]?
The value was “(1.7) %”.

What about the “Bleeding events: PT Upper gastrointestinal haemorrhage, %” value [1, 3] of the same compound?
Its value is “(1.7) %”.

What about the “Bleeding events: PT Vaginal haemorrhage, %” value [1, 3] of the same compound?
Its value is “(0.8) %”.

And the “Bleeding events: PT Vascular rupture, %” value [1, 3]?
Its value is “(0.8) %”.

What about the “GI intussusception risk: PT Small intestinal obstruction, %” value [1, 3] of the same compound?
The value was “(0.8) %”.

What about the “MACE: PT Transient ischaemic attack, %” value [1, 3] of the same compound?
The value was “(0.8) %”.

And the “Medication errors: PT Accidental overdose, %” value [1, 3]?
Its value is “(0.8) %”.

And the “Ophthalmological risk: PT Blindness, %” value [1, 3]?
The value was “(0.8) %”.

What about the “Ophthalmological risk: PT Photopsia, %” value [1, 3] of the same compound?
The value was “(0.8) %”.

What about the “Ophthalmological risk: PT Retinal vasculitis, %” value [1, 3] of the same compound?
The value was “(0.8) %”.

What about the “Ophthalmological risk: PT Vision blurred, %” value [1, 3] of the same compound?
Its value is “(1.7) %”.

What about the “Ophthalmological risk: PT Vitreous floaters, %” value [1, 3] of the same compound?
The value was “(0.8) %”.

And the “PVOD/pulmonary oedema risk: PT Pulmonary oedema, %” value [1, 3]?
Its value is “(0.8) %”.

And the “PVOD/pulmonary oedema risk: PT Pulmonary veno-occlusive disease, %” value [1, 3]?
The value was “(0.8) %”.

What about the “Renal risk: PT Acute kidney injury, %” value [1, 3] of the same compound?
The value was “(3.4) %”.

And the “Renal risk: PT Blood creatinine increased, %” value [1, 3]?
Its value is “(2.5) %”.

What about the “Renal risk: PT Glomerular filtration rate decreased, %” value [1, 3] of the same compound?
Its value is “(0.8) %”.

And the “Renal risk: PT Prerenal failure, %” value [1, 3]?
The value was “(0.8) %”.

What about the “Renal risk: PT Renal failure, %” value [1, 3] of the same compound?
The value was “(0.8) %”.

What about the “Renal risk: PT Renal impairment, %” value [1, 3] of the same compound?
Its value is “(0.8) %”.

What about the “Risk Anaemia (all PTs), %” value [1, 3] of the same compound?
The value was “(25.2) %”.

What about the “Risk Anaemia: PT Anaemia, %” value [1, 3] of the same compound?
Its value is “(12.6) %”.

And the “Risk Anaemia: PT Blood loss anaemia, %” value [1, 3]?
The value was “(0.8) %”.

And the “Risk Anaemia: PT Haematocrit decreased, %” value [1, 3]?
Its value is “(0.8) %”.

What about the “Risk Anaemia: PT Haemoglobin decreased, %” value [1, 3] of the same compound?
Its value is “(6.7) %”.

And the “Risk Anaemia: PT Iron deficiency anaemia, %” value [1, 3]?
Its value is “(6.7) %”.

What about the “Risk Anaemia: PT Microcytic anaemia, %” value [1, 3] of the same compound?
The value was “(1.7) %”.

And the “Risk Anaemia: PT Red blood cell count decreased, %” value [1, 3]?
The value was “(0.8) %”.

What about the “Risk Bleeding events (all PTs), %” value [1, 3] of the same compound?
The value was “(21.8) %”.

What about the “Risk Gastrointestinal disturbances denoting intestinal intussusception (manifested as ileus or obstruction), %” value [1, 3] of the same compound?
Its value is “(0.8) %”.

And the “Risk Hypotension (all PTs), %” value [1, 3]?
The value was “(8.4) %”.

And the “Risk Hypotension: PT Hypotension, %” value [1, 3]?
Its value is “(7.6) %”.

And the “Risk Hypotension: PT Orthostatic hypotension, %” value [1, 3]?
The value was “(0.8) %”.

And the “Risk Light-dependent non-melanoma skin malignancies (all PTs), %” value [1, 3]?
Its value is “(0.8) %”.

And the “Risk Major adverse cardiovascular events (MACE) (all PTs), %” value [1, 3]?
Its value is “(0.8) %”.

And the “Risk Medication errors (all PTs), %” value [1, 3]?
Its value is “(0.8) %”.

What about the “Risk Ophthalmological effects associated to retinal vascular system (all PTs), %” value [1, 3] of the same compound?
Its value is “(4.2) %”.

And the “Risk Pulmonary venoocclusive disease associated with pulmonary oedema (all PTs), %” value [1, 3]?
Its value is “(1.7) %”.

What about the “Risk Renal function impairment/acute renal failure (all PTs), %” value [1, 3] of the same compound?
The value was “(8.4) %”.

What about the “Skin malignancies risk: PT Basal cell carcinoma, %” value [1, 3] of the same compound?
Its value is “(0.8) %”.

What about the “Subjects with At Least One Identified or Potential Risk AE, %” value [1, 3] of the same compound?
Its value is “(49.6) %”.

What about the “Maximum tolerated dose of double-blind treatment (b.i.d), Median” value [2] of the same compound?
Its value is 1000.0 µg.
